Drawing on ChEMBL document CHEMBL5729389, “1,4-diphenyl-1H-imidazole and 2,4-diphenylthiazole derivatives and preparation method therefor and use thereof” (2022), this text covers EC50 for seven compounds.

A value given as a limit tells only on which side of the number the result lay.

Chain of Toll-like receptor 1/2 (O60603 whole entry): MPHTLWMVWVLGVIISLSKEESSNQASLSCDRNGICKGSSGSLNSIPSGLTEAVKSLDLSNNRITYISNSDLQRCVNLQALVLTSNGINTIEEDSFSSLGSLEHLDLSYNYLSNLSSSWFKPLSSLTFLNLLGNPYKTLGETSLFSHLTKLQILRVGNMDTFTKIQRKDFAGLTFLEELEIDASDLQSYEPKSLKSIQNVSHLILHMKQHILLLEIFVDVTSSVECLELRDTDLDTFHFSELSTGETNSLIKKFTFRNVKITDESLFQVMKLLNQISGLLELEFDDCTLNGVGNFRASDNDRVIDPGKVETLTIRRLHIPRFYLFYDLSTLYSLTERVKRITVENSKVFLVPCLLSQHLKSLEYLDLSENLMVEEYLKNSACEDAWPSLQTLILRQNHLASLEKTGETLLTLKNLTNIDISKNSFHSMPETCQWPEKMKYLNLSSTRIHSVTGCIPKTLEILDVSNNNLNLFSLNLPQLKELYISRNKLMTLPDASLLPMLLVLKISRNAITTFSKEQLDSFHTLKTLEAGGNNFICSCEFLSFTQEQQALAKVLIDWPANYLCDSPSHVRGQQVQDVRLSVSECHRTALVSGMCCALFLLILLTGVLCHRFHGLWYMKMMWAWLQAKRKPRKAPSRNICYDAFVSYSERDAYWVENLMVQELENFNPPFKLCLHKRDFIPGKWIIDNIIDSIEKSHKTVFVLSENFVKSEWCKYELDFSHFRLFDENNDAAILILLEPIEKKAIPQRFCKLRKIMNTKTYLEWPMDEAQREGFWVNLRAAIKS
Chain of Toll-like receptor 1/2 (Q15399 whole entry): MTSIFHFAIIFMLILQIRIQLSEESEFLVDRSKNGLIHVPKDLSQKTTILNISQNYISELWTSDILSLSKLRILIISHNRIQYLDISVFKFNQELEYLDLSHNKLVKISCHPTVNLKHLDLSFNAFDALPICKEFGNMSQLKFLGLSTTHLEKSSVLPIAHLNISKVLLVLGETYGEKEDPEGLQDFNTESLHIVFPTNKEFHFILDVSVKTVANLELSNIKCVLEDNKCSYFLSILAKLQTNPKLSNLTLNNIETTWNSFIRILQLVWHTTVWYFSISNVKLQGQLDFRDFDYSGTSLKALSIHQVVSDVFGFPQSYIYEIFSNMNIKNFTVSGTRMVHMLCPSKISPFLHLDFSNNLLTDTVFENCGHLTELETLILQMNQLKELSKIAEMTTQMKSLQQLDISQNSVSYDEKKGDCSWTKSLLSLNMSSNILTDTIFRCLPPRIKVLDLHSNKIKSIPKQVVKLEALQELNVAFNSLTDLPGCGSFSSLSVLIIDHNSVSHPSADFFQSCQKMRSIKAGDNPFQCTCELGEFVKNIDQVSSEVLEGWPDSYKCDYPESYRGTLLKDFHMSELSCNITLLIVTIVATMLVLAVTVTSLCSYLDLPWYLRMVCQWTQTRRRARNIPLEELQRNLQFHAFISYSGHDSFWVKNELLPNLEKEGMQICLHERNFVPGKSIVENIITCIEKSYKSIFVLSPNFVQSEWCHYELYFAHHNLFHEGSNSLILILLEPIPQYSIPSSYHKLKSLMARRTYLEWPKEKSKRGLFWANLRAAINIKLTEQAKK

The test has as its target Toll-like receptor 1/2 (Homo sapiens, UniProt O60603+Q15399). The experiment in a line: TBD: TBD. It is filed as protein-complex assay.
For the compound `Oc1cc(C(F)(F)F)ccc1-c1csc(-c2ccc(C(F)(F)F)cc2)n1`, the EC50 (as a rule, the concentration that produces a half-maximal response) was more than 1000 nM.

In turn, `COc1ccc(-c2nc(-c3ccc(C(F)(F)F)cc3O)cs2)cc1` registered an EC50 of more than 1000 nM.

As to `O=[N+]([O-])c1ccc(Cl)c(-c2nc(-c3ccc(C(F)(F)F)cc3O)cs2)c1`, the EC50 was more than 1000 nM.

In the case of `CNc1ccc([N+](=O)[O-])cc1-n1cnc(-c2ccc(C(F)(F)F)cc2OCCN)c1`, the EC50 is more than 1000 nM.

Compound `CNc1ccc([N+](=O)[O-])cc1-n1cnc(-c2ccc(C(F)(F)F)cc2OS(=O)(=O)O)c1` returned an EC50 of 49.1 nM.

On to `FC(F)(F)c1ccc(-c2csc(-c3ccc(C(F)(F)F)cc3)n2)cc1`, for which the EC50 is more than 1000 nM.

`O=[N+]([O-])c1ccc(-c2nc(-c3ccc(C(F)(F)F)cc3)cs2)cc1`: the EC50 was more than 1000 nM.
